The experiment deals with T1, human 5-HT6 receptor (Homo sapiens, UniProt P50406).
T1 construct: host or cells: CHO-K1 cells, stably transfected; membranes prepared in house
The experiment can be described thus: Human 5-HT6 Receptor Binding Assay ([3H]LSD displacement, scintillation beads). As to conditions: membranes of CHO-K1 cells with recombinant human 5-HT6, 4 nM [3H]LSD, read-out: h5-HT6 (Ki).

Molecules are shown by their SMILES. Structures can show the parent of a compound that is named as a salt. Where two headings read alike, the source gives them in different places.

As a reminder, the Ki is the equilibrium dissociation constant of an inhibitor or competing ligand from its target.

T1 sequence (P50406 whole entry): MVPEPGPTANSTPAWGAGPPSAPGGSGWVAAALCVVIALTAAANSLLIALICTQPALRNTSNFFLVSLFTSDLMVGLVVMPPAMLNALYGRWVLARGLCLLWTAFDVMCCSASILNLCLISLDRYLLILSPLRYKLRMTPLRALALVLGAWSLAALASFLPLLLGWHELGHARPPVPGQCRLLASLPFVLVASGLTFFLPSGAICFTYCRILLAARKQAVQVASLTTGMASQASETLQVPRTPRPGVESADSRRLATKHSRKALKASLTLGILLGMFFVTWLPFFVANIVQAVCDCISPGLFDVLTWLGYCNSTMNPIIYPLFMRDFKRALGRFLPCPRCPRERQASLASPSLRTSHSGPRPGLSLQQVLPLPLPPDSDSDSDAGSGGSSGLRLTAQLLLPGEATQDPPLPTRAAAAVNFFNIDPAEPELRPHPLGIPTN

On to `COCCN1CCc2c(oc3cc(S(=O)(=O)c4ccccc4)ccc23)C1` [Example 594], for which the inhibition constant (Ki) (Table 1, class symbols) is less than 500 nM.

Turning to `CC(C)COc1cc(F)cc(S(=O)(=O)c2ccc3c(c2)OC2CNCCC32)c1` (stereo not shown) [Example 414], the Ki (Table 1, class symbols) is less than 500 nM. On to `O=S(=O)(Oc1ccc2c(c1)OC1CNCCC21)c1cc2ccccc2o1` (stereo not shown) [Example 655], for which, where the note is “Table 1, class symbols”, the Ki is less than 500 nM. `CC1(C)NCCc2c1oc1cc(S(=O)(=O)c3cc[nH]c(=O)c3)ccc21` [Example 366]: the inhibitory constant (Ki) (Table 1, class symbols) is less than 500 nM. `CC(C)c1ccc(S(=O)(=O)c2ccc3c(c2)C2CCNCC2O3)cc1` (stereo not shown) [Example 179]: the Ki (Table 1, class symbols) is less than 500 nM. On to `O=S(=O)(c1cc(F)cc(F)c1)c1ccc2oc3c(c2c1)CCNC3` [Example 256], for which, under “Table 1, class symbols”, the Ki is less than 500 nM. Take `CC1(C)CNCc2oc3cc(S(=O)(=O)c4ccccc4)ccc3c21` [Example 286]: the Ki (Table 1, class symbols) is less than 500 nM. As to `O=S(=O)(c1ccc(Oc2ccccc2)cc1)c1ccc2c(c1)OC1CNCCC21` (stereo not shown) [Example 116], the Ki (Table 1, class symbols) was less than 500 nM. Turning to `CN(C)C(=O)c1c(F)cccc1S(=O)(=O)c1ccc2c3c(oc2c1)CNCC3` [Example 479], the inhibitory constant (Ki) (Table 1, class symbols) is greater than 1000 nM.

As to `Cc1ccncc1S(=O)(=O)c1ccc2c3c(oc2c1)C(C)(C)NCC3` [Example 379], the Ki (Table 1, class symbols) is less than 500 nM. As for `CC(=O)N(C)CC1NCCc2c1oc1cc(S(=O)(=O)c3cccc(F)c3)ccc21` (racemic) [Example 537, N-({7-[(3-fluorophenyl)sulfonyl]-1,2,3,4-tetrahydro[1]benzofuro[2,3-c]pyridin-1-yl}methyl)-N-methylacetamide], the Ki (Table 1, class symbols) is less than 500 nM. On the same count and under the same terms, the figure for `O=S(=O)(c1ccc2c(c1)OC1CNCCC21)c1cc(F)cc(F)c1F` (stereo not shown) [Example 386] is less than 500 nM; for `COCC1(C)NCCc2c1oc1cc(S(=O)(=O)c3cccc(F)c3)ccc21` (racemic) [Example 49, 7-[(3-fluorophenyl)sulfonyl]-1-(methoxymethyl)-1-methyl-1,2,3,4-tetrahydro[1]benzofuro[2,3-c]pyridine] it is less than 500 nM; for `O=S(=O)(c1ccccc1)c1ccc2c(c1)C1CCNCC1O2` (stereo not shown) [Example 334, 6-(phenylsulfonyl)-1,2,3,4,4a,9a-hexahydro[1]benzofuro[2,3-c]pyridine] it is 500 to 1000 nM. As for `O=S(=O)(Nc1ccc2c(c1)C1CCNCC1O2)c1ccc(Cl)c(Cl)c1` (stereo not shown) [Example 827], the Ki (Table 1, class symbols) was less than 500 nM.

Turning to `[O-][S+](c1cncc(Cl)c1)c1ccc2c(c1)OC1CNCCC21` (stereo not shown) [Example 391], where the note is “Table 1, class symbols”, the Ki was greater than 1000 nM. Turning to `O=S(=O)(c1cccc(Oc2cnccn2)c1)c1ccc2c(c1)OC1CNCCC21` (stereo not shown) [Example 580], the Ki (Table 1, class symbols) was less than 500 nM.

`COc1cc(OC)cc(S(=O)(=O)c2ccc3c(c2)OC2CNCCC32C)c1` (stereo not shown) [Example 487]: the inhibition constant Ki (Table 1, class symbols) is less than 500 nM. In the case of `Cc1c(S(=O)(=O)Oc2ccc3c(c2)OC2CNCCC32)sc2ccc(Cl)cc12` (stereo not shown) [Example 687], for the setting “Table 1, class symbols”, the inhibition constant (Ki) was less than 500 nM. On the same count and under the same terms, with `O=S(=O)(c1cccc(OCC2CC2)c1)c1ccc2c(c1)OC1CNCCC21` (stereo not shown) [Example 555] the figure was less than 500 nM; with `COc1ccc(S(=O)(=O)c2ccc3c(c2)OC2CNCCC32)cc1` (stereo not shown) [Example 325], 500 to 1000 nM. With `CC(C)N1CCC2c3ccc(S(=O)(=O)c4ccccc4)cc3OC2C1` (stereo not shown) [Example 608, 7-(phenylsulfonyl)-2-(propan-2-yl)-1,2,3,4,4a,9a-hexahydro[1]benzofuro[2,3-c]pyridine], the Ki runs as follows: (Table 1, class symbols) less than 500 nM; (specific data) 49.4 nM. Regarding `O=S(=O)(c1cc(F)cc(OCc2ccccc2)c1)c1ccc2c(c1)OC1CNCCC21` (stereo not shown) [Example 484], the Ki (Table 1, class symbols) was less than 500 nM.

In the case of `O=S(=O)(c1cccc(Cl)c1)c1ccc2c3c(oc2c1)C(C1CCOC1)NCC3` (stereo not shown) [Example 521], the inhibitory constant (Ki) (Table 1, class symbols) was less than 500 nM. As for `O=S(=O)(Oc1ccc2c(c1)C1CCNCC1O2)c1ccc(Oc2ccccc2)nc1` (stereo not shown) [Example 746], the inhibitory constant (Ki) (Table 1, class symbols) was greater than 1000 nM. On to `O=S(=O)(Oc1ccc2c(c1)OC1CN(C3CCCC3)CCC21)c1ccc(Cl)cc1` (stereo not shown) [Example 801], for which the inhibitory constant (Ki) (Table 1, class symbols) was greater than 1000 nM. The same measure, in the same setting: the figure for `O=S(=O)(c1ccccc1)c1ccc2c3c(oc2c1)C1(CCCOC1)NCC3` (single isomer, unassigned) [Example 544, 7-(Phenylsulfonyl)-3,4,5′,6′-tetrahydro-2H,4′H-spiro[1-benzofuro[2,3-c]pyridine-1,3′-pyran]hydrochloride] is 500 to 1000 nM; for `CC12CCNCC1Oc1ccc(OS(=O)(=O)c3cccc(Cl)c3)cc12` (stereo not shown) [Example 762] it is greater than 1000 nM. Take `CC12CCNCC1Oc1ccc(OS(=O)(=O)c3cc4ccccc4s3)cc12` (stereo not shown) [Example 773]: the Ki (Table 1, class symbols) was less than 500 nM. For `O=S(=O)(c1ccc2c(c1)OC1CNCCC21)c1cccc2cccnc12` (stereo not shown) [Example 333], the Ki (Table 1, class symbols) was less than 500 nM. `N#Cc1ccc(S(=O)(=O)c2ccc3oc4c(c3c2)CCNC4)cc1` [Example 271]: where the note is “Table 1, class symbols”, the inhibition constant Ki was greater than 1000 nM. The same measure, in the same setting: with `CC12CCNCC1Oc1cc(S(=O)(=O)c3cccc(OC(F)(F)F)c3)ccc12` (stereo not shown) [Example 358, 4a-methyl-7-{[3-(trifluoromethoxy)phenyl]sulfo-nyl}-1,2,3,4,4a,9a-hexahydro[1]benzofuro[2,3-c]pyridine] the figure was less than 500 nM; with `Cc1cccc([S+]([O-])c2ccc3c(c2)OC2CNCCC32)n1` (stereo not shown) [Example 327], greater than 1000 nM.

Take `O=S(=O)(Oc1ccc2c(c1)OC1CNCCC21)c1ccccc1` (stereo not shown) [Example 636]: the Ki (Table 1, class symbols) was less than 500 nM. As for `CC12CCNCC1Oc1cc(S(=O)(=O)c3cc[nH]c(=O)c3)ccc12` (stereo not shown) [Example 428], the inhibitory constant (Ki) (Table 1, class symbols) was greater than 1000 nM. For the molecule `O=S(=O)(c1ccc2c(c1)OC1CNCCC21)c1cccnc1OCC(F)(F)F` (stereo not shown) [Example 395], where the note is “Table 1, class symbols”, the inhibition constant (Ki) is less than 500 nM.

Take `O=S(=O)(Oc1ccc2c(c1)OC1CN(C3CCC3)CCC21)c1ccc(Cl)cc1` (stereo not shown) [Example 800]: for the setting “Table 1, class symbols”, the Ki is greater than 1000 nM. Still for that read-out and setting: with `O=S(=O)(c1ccc2c(c1)OC1CNCCC21)c1ccccc1-c1ccccc1` (stereo not shown) [Example 153] the figure was less than 500 nM. Take `CC(C)N1CCC2(C)c3cc(OS(=O)(=O)Cc4ccccc4)ccc3OC2C1` (stereo not shown) [Example 804]: the Ki (Table 1, class symbols) was greater than 1000 nM. Turning to `O=S(=O)(c1ccc2oc3c(c2c1)CCNC3)c1ccccc1Cl` [Example 276], the Ki (Table 1, class symbols) was less than 500 nM.

As for `CC(C)Oc1cc(OCCO)cc(S(=O)(=O)c2ccc3c(c2)OC2CNCCC32)c1` (stereo not shown) [Example 590], for the setting “Table 1, class symbols”, the inhibitory constant (Ki) was less than 500 nM. On to `COc1cc(F)cc(S(=O)(=O)c2ccc3c(c2)OC2CNCCC32)c1` (stereo not shown) [Example 420], for which, where the note is “Table 1, class symbols”, the Ki is less than 500 nM.

As to `O=S(=O)(Oc1ccc2c(c1)OC1CNCCC21)c1c(Cl)nc2sccn12` (stereo not shown) [Example 792], the Ki (Table 1, class symbols) was less than 500 nM. Same read-out and setting: the figure for `O=S(=O)(Oc1ccc2c(c1)C1CCNCC1O2)c1ccc(Cl)cc1` (stereo not shown) [Example 695] is greater than 1000 nM; for `COCCCOc1cccc(S(=O)(=O)c2ccc3c(c2)OC2CNCCC32)c1` (stereo not shown) [Example 576] it is less than 500 nM. Take `O=S(=O)(Oc1ccc2c(c1)C1CCNCC1O2)c1cccc(C(F)(F)F)c1` (stereo not shown) [Example 737]: the Ki (Table 1, class symbols) is less than 500 nM.

Regarding `O=S(=O)(Oc1ccc2c(c1)C1CCNCC1O2)c1ccc(-c2ccon2)s1` (stereo not shown) [Example 742], for the setting “Table 1, class symbols”, the Ki is less than 500 nM. Consider `CC(C)Oc1cccc(S(=O)(=O)c2ccc3c(c2)OC2CNCCC32)c1F` (stereo not shown) [Example 481], for which the Ki (Table 1, class symbols) was less than 500 nM. On to `CC1(C)CNC2(CCOCC2)c2oc3cc([S+]([O-])c4cccc(F)c4)ccc3c21` (racemic) [Example 47, 7-[(3-fluorophenyl)sulfinyl]-4,4-dimethyl-2′,3,3′,4,5′,6′-hexahydro-2H-spiro[1-benzofuro[2,3-c]pyridine-1,4′-pyran]], for which the Ki (Table 1, class symbols) was less than 500 nM. Regarding `COCC1(C)NCCc2c1oc1cc(S(=O)(=O)c3cccc(F)c3)ccc21` (stereo not shown) [Example 633], the inhibitory constant (Ki) (Table 1, class symbols) was less than 500 nM.

Consider `O=S(=O)(Nc1ccccc1Cl)c1ccc2c(c1)C1CCNCC1O2` (stereo not shown) [Example 840], for which the inhibitory constant (Ki) (Table 1, class symbols) was greater than 1000 nM.

In the case of `Cc1cccc(S(=O)(=O)Oc2ccc3c(c2)C2CCNCC2O3)c1` (stereo not shown) [Example 699], the inhibition constant (Ki) (Table 1, class symbols) is less than 500 nM. With `CC12CCN(CCc3ccccc3)CC1Oc1ccc(OS(=O)(=O)Cc3ccccc3)cc12` (stereo not shown) [Example 811], under “Table 1, class symbols”, the inhibition constant (Ki) is greater than 1000 nM. Consider `Cc1ccc(NS(=O)(=O)c2ccc3c(c2)C2CCNCC2O3)cc1F` (stereo not shown) [Example 851], for which the inhibitory constant (Ki) (Table 1, class symbols) is greater than 1000 nM.

For the molecule `CC(=O)NCC1NCCc2c1oc1ccc(S(=O)(=O)c3cccc(F)c3)cc21` (stereo not shown) [Example 531, N-({6-[(3-fluorophenyl)sulfonyl]-1,2,3,4-tetrahydro[1]benzofuro[2,3-c]pyridin-1-yl}methyl)acetamide], the inhibitory constant (Ki) (Table 1, class symbols) was less than 500 nM.

For the molecule `CC(C)Oc1cccc(S(=O)(=O)c2ccc3c(c2)OC2CNCCC32C)c1` (racemic) [Example 12, 4a-methyl-7-{[3-(propan-2-yloxy)phenyl]sulfonyl}-1,2,3,4,4a,9a-hexahydro[1]benzofuro[2,3-c]pyridine], where the note is “Table 1, class symbols”, the inhibition constant (Ki) is less than 500 nM. Regarding `O=S(=O)(c1ccc2c(c1)OC1CNCCC21)c1cccc(F)c1F` (stereo not shown) [Example 411], the Ki (Table 1, class symbols) is less than 500 nM. Turning to `O=S(=O)(c1cccc(F)c1)c1ccc2c(c1)C1CCNCC1O2` (stereo not shown) [Example 168], the inhibitory constant (Ki) (Table 1, class symbols) lay in the range of 500 to 1000 nM. Same read-out and setting: the figure for `CC1(C)NCCc2c1oc1cc(S(=O)(=O)c3ccc(F)c(F)c3)ccc21` [Example 290] is less than 500 nM; for `O=S(=O)(c1ccc2c(c1)OC1CNCCC21)c1cccc(F)c1F` (stereo not shown) [Example 388] it is less than 500 nM. In the case of `[O-][S+](c1ccc2oc3c(c2c1)CCNC3)c1cccc(F)c1F` (stereo not shown) [Example 442], the inhibition constant Ki (Table 1, class symbols) was greater than 1000 nM. As for `COc1ccc(S(=O)(=O)c2ccc3c(c2)OC2CNCCC32)cc1F` (stereo not shown) [Example 129], under “Table 1, class symbols”, the inhibition constant Ki is 500 to 1000 nM.

As to `O=S(=O)(c1ccccc1)c1ccc2c(c1)OC1CN(C3CCC3)CCC21` (stereo not shown) [Example 606, 2-Cyclobutyl-7-(phenylsulfonyl)-1,2,3,4,4a,9a-hexahydro[1]benzofuro[2,3-c]pyridine trifluoroacetic acid salt], where the note is “Table 1, class symbols”, the inhibition constant Ki was less than 500 nM. Same read-out and setting: with `CN(C)c1cccc(S(=O)(=O)c2ccc3c4c(oc3c2)CNCC4)c1` [Example 347] the figure was less than 500 nM. On to `CC(C)C1NCCc2c1oc1cc(S(=O)(=O)c3cccc(Cl)c3)ccc21` (stereo not shown) [Example 505], for which, for the setting “Table 1, class symbols”, the Ki was less than 500 nM. Same read-out and setting: with `Cc1noc(C)c1S(=O)(=O)Oc1ccc2c(c1)C1CCNCC1O2` (stereo not shown) [Example 703] the figure was greater than 1000 nM.

Values taken from patent US8765779B2, “Tricyclic derivatives and their pharmaceutical use and compositions” (Cephalon, Inc., priority 2009, dated 2014).
